Where “and” joins values, the source holds several entries; their conditions need not be identical. Equal values may be shown once.
How the values were obtained:
[1] = test system: chronic graft versus host disease (chronic GVHD); test: Clinical study of efficacy and safety of tamibarotene for chronic GVHD (Examples 1 and 2); assay type: in vivo, human; settings: for Eyeball: subjects with improvement in Schirmer's test: out of the 18 subjects; for subjects for whom the overall judgment was PR: oral, start 4 mg per day, with PSL/steroid
Experimental: Tamibarotene was administered to a patient with chronic graft versus host disease (chronic GVHD) after allogeneic hematopoietic stem cell transplantation, and efficacy thereof was studied. Main selection criteria for subjects are as follows: • (A) An age is 18 years or older and younger than 85 years • (B) A Karnofsky performance status (KPS) is 60 or more • (C) A steroid treatment-refractory or steroid treatment-dependent patient who has started treatment with 0.5 mg/kg or more of PSL (prednisolone) (or received corresponding steroid treatment) as a first-line treatment, and who falls under any of the following (1) through (4): • (1) A patient who needs additional treatment because of exacerbation even after 1 mg/kg or more of PSL has been administered for 2 weeks; • (2) A patient who has not been ameliorated after 4 weeks of treatment, including administration of 0.5 mg/kg or more of PSL for 2 weeks, and needs additional treatment. • (3) A patient whose GVHD symptom has relapsed or worsened within a period in which the dose of the steroid was reduced • (4) A steroid treatment-dependent patient for whom a dose reduction from 10 mg/day (or corresponding steroid treatment) is difficult Tamibarotene was administered to 18 subjects. As the administration method, 2 mg tablets of tamibarotene were administered orally for 24 weeks. The administration was started with 2 doses (a 2 mg tablet, twice) after breakfast and dinner, i.e., 4 mg (equivalent to 3 mg/m^2) per day. PSL or steroid administration was also continued daily. 2 mg tablets of tamibarotene were administered orally for 24 weeks. Administration was started at 4 mg (equivalent to 3 mg/m^2) per day, i.e., twice daily after breakfast and dinner (one 2 mg tablet in each of the morning and evening). If an adverse event was mild (grade 0 to 1), the dose could be increased to 8 mg per day (two 2 mg tablets in each of the morning and evening) after 4 weeks of continuation (in a case of 6 mg per day, two 2 mg tablets were to be taken after breakfast and one 2 mg tablet after dinner). In a case of grade 2 for an unexpected adverse event (for which a causal relationship could not be ruled out), or grade 3 for an expected adverse event (for which a causal relationship could not be ruled out), the dose was reduced to 2 mg per day (one tablet once after breakfast), and administration was continued. Alternatively, after a 2-week drug holiday, administration was restarted at 2 mg per day and continued, after confirming that the adverse event had improved to a grade one level lower than that before the drug holiday. However, in regard to an abnormal liver function of grade 3, in a case of a patient who had grade 3 liver dysfunction due to chronic GVHD from before enrollment, administration could be continued without dose reduction or drug holiday, even if the abnormal liver function remained at grade 3. In a case where drug holidays and restarts were repeated with administration at 2 mg per day due to an adverse event, administration could be continued by reducing the dose to 2 mg on alternate days. The survival rate without treatment failure (death, relapse, implementation of additional treatment) at the end of tamibarotene administration (week 24), i.e., failure-free survival (FFS), was evaluated. In a case where additional treatment was implemented for chronic GVHD, such a case was considered treatment failure at that point in time. In regard to the additional treatment herein, a change in the steroid dose was not considered, but in a case where the dose was increased to an amount exceeding 1 mg/kg/day, it was considered that additional treatment had been implemented. [Table 1] For the skin, eyeball, and gastrointestinal tract, the NIH organ-specific scores described in Biol. Blood Marrow Transplant, 2005 11(12), 945-56 were used. For the skin, a therapeutic effect was further evaluated using a total skin score. In addition, the 15-point Schubert scale in Table 2 was used for the oral cavity. […]

[2] = Plasma concentration of active ingredient in patients, measured by HPLC (Example 3); assay type: in vivo, human
Experimental: To a total of 11 patients, a single dose of 2.0 mg, 4.0 mg, or 6.0 mg of tamibarotene was administered.
Moreover, to a total of 6 patients, repeated doses of 8.0 mg or 10.0 mg of tamibarotene were administered.
For the 2.0 mg dose, one tablet (2 mg of tamibarotene) was administered after breakfast using a tablet of 2 mg tamibarotene; for the 4.0 mg dose, one tablet (2 mg of tamibarotene) was administered after breakfast and one tablet (2 mg of tamibarotene) was administered after dinner; and for the 6.0 mg dose, two tablets (4 mg of tamibarotene) were administered after breakfast and one tablet (2 mg of tamibarotene) was administered after dinner.
For the 8.0 mg dose, two tablets (4 mg of tamibarotene) after breakfast and two tablets (4 mg of tamibarotene) after dinner were administered repeatedly for 35 to 46 days, using a tablet of 2 mg tamibarotene. For the 10.0 mg dose, three tablets (6 mg of tamibarotene) after breakfast and two tablets (4 mg of tamibarotene) after dinner were administered repeatedly for 34 to 59 days, using a tablet of 2 mg tamibarotene. […]

[3] = week 12 of administration, 18 subjects
[4] = week 24, out of the 16 subjects
[5] = week 24 of administration, 5/18
[6] = week 24 of administration, 18 subjects

## CC1(C)CCC(C)(C)c2cc(NC(=O)c3ccc(C(=O)O)cc3)ccc21 [tamibarotene, 4-[(5,6,7,8-tetrahydro-5,5,8,8-tetramethyl-2-naphthalenyl)carbamoyl]benzoic acid]
[1]; 2 years after the end of treatment, one subject per line
  follow-up of single subjects whose overall judgment was PR: able to discontinue the administration of PSL and reduce the dose of FK506 at 2 years after the end of treatment without exacerbation of chronic GVHD
[1]; Case 1, start vs end of administration, 200 days, Fig. 1
  knee joint flexion: notable improvement in knee joint flexion
[1]; Case 1, start vs end of administration, 200 days, tamibarotene/prednisolone/tacrolimus 4 mg/15 mg/4 mg at start, Fig. 1
  knee joint extension: notable improvement in knee joint extension
[1]; Case 2, start vs end of administration, 137 days, Fig. 2
  cutis symptom on knee: notable amelioration of pigmentation and skin sclerosis in the knee
[1]; Case 2, start vs end of administration, 137 days, tamibarotene/predonine/tacrolimus 4 mg/11 mg/0.2 mg at start, Fig. 2
  cutis symptom on lower part of back: amelioration of pigmentation and skin sclerosis in the lower part of the lower back
[1]; Case 3, start vs end of administration, 83 days, tamibarotene/prednisolone/tacrolimus 4 mg/10 mg/0.6 mg, Fig. 3
  oral cavity symptom: healing of ulcer and notable amelioration of erythema were seen in the oral cavity
[1]; all cases in Example 1
  response rate for each organ (Fig. 4), in words: the effect was seen in chronic GVHD of the eyeball and liver in addition to the skin and the oral cavity, or chronic GVHD maintained without exacerbation
[1]; entire administered population, final analysis, NIH Consensus Development Project Criteria (2005), 6/18, 95% confidence interval 13.3% to 59.0%
  overall response rate: 33.3%
[1]; entire administered population, sensitivity analysis, 7/18 cases, 95% confidence interval 17.3% to 64.3%
  overall response rate based on the NIH Consensus Development Project Criteria (2014): 38.9%
[1]; human, in vivo
  NIH response rate for the joints and fascia: 11%
  response rate for the lung function score: unchanged
[1]; influence of other diseases difficult to consider
  NIH response rate for the liver: 23%
[1]; left eye
  Eyeball: subjects with improvement in Schirmer's test: 7 subjects
[1]; n=5
  NIH response rate for the gastrointestinal tract: 20%
[1]; n=6
  NIH response rate for the genitals: 17%
[1]; patients in Examples, no amelioration before with various drugs
  amelioration in the symptom after administration: amelioration in the symptom was seen in all the patients
[1]; right eye
  Eyeball: subjects with improvement in Schirmer's test: 5 subjects
[1]; several subjects
  Oral cavity: symptoms: healing of ulcer and notable amelioration of erythema were seen in several subjects
  Skin: symptoms: notable amelioration of edema, skin sclerosis, pigmentation, or erythema in several subjects
[1]; subjects in whom a therapeutic effect was confirmed
  range of joint motion: notable improvement in the range of joint motion
[1]; [3]
  subjects for whom the overall judgment was SD: 7 subjects
  subjects for whom the overall judgment was PR: 5 subjects
[1]; week 24, compared with start of tamibarotene administration, 18 subjects
  subjects in whom the dose of PSL could be reduced by 50% or more: 3 subjects
[1]; week 24, compared with start of treatment, 18 subjects
  subjects in whom the dose of PSL could be reduced: 7 subjects
[1]; week 24, 14 subjects
  Eyeball: NIH response rate: 14%
  Eyeball: subjects evaluated as CR: No subject
  Eyeball: subjects evaluated as PR: two
[1]; week 24, 16 subjects
  Oral cavity: NIH response rate: 25%
  Oral cavity: subjects evaluated as CR: Two
  Oral cavity: subjects evaluated as PR: two
  Skin: NIH response rate: 25%
  Skin: subjects evaluated as CR: One
  Skin: subjects evaluated as PR: three
[1]; [4]
  Oral cavity: subjects with improved score on the 15-point Schubert scale: 10 subjects
  Skin: subjects with improved total skin score: 8 subjects
[1]; [5]
  failure-free survival (FFS): 28%
  response rate: 28%
[1]; [6]
  subjects for whom the overall judgment was SD: 7 subjects
  subjects for whom the overall judgment was PR: 5 subjects
[2]; after 8 hours from a single dose of 2.0 mg, lowest concentration list, 480 min
  Plasma concentration: 3.26 ng/mL
[2]; after 10 hours from a single dose of 4.0 mg, lowest concentration list, 600 min
  Plasma concentration: 8.03 ng/mL and 7.01 ng/mL
[2]; after 24 hours from single dose of 6.0 mg, individual values, lowest concentration list, 1440 min
  Plasma concentration: 1.08 ng/mL and 1.14 ng/mL and 2.50 ng/mL
[2]; after hours (figure not given) from repeated doses (46 days) of 8.0 mg, highest concentration list
  Plasma concentration: 100.09 ng/mL
[2]; human, plasma, po, 2 mg, after 4 hours from a single dose of 2.0 mg, lowest concentration list
  concentration at 4 h: 8.98 ng/mL
[2]; human, plasma, po, 2 mg, after 8 hours from a single dose of 2.0 mg, lowest concentration list
  concentration at 8 h: 5.04 ng/mL
[2]; human, plasma, po, 4 mg, after 10 hours from a single dose of 4.0 mg, lowest concentration list
  concentration at 10 h: 9.56 ng/mL
[2]; human, plasma, po, 6 mg, after 4 hours from a single dose of 6.0 mg, highest concentration list
  concentration at 4 h: 80.2 ng/mL
[2]; human, plasma, po, 6 mg, after 4 hours from repeated doses (47 days) of 6.0 mg, highest concentration list
  concentration at 4 h: 92.5 ng/mL
[2]; human, plasma, po, 6 mg, after 6 hours from a single dose of 6.0 mg, lowest concentration list
  concentration at 6 h: 7.42 ng/mL
[2]; human, plasma, po, 6 mg, after 10 hours from a single dose of 6.0 mg, lowest concentration list
  concentration at 10 h: 7.72 ng/mL
[2]; human, plasma, po, 8 mg, after 4 hours from repeated doses (35 days) of 8.0 mg, highest concentration list
  concentration at 4 h: 84.6 ng/mL
[2]; human, plasma, po, 8 mg, after 4 hours from repeated doses (46 days) of 8.0 mg, highest concentration list
  concentration at 4 h: 85.2 ng/mL
[2]; human, plasma, po, 8 mg, after 24 hours from repeated doses (46 days) of 8.0 mg, lowest concentration list
  concentration at 24 h: 2.92 ng/mL
[2]; human, plasma, po, 10 mg, after 2 hours from repeated doses (34 days) of 10.0 mg, highest concentration list
  concentration at 2 h: 88 ng/mL
[2]; human, plasma, po, 10 mg, after 2 hours from repeated doses (58 days) of 10.0 mg, highest concentration list
  concentration at 2 h: 199 ng/mL
[2]; human, plasma, po, 10 mg, after 2 hours from repeated doses (59 days) of 10.0 mg, highest concentration list
  concentration at 2 h: 119 ng/mL
[2]; human, plasma, po, 10 mg, after 4 hours from repeated doses (34 days) of 10.0 mg, highest concentration list
  concentration at 4 h: 85.6 ng/mL
[2]; human, plasma, po, 10 mg, after 4 hours from repeated doses (36 days) of 10.0 mg, highest concentration list
  concentration at 4 h: 161 ng/mL
[2]; human, plasma, po, 10 mg, after 4 hours from repeated doses (58 days) of 10.0 mg, highest concentration list
  concentration at 4 h: 88.7 ng/mL
[2]; human, plasma, po, 10 mg, after 4 hours from repeated doses (59 days) of 10.0 mg, highest concentration list
  concentration at 4 h: 82.1 ng/mL
[2]; human, plasma, po, 10 mg, after 8 hours from repeated doses (36 days) of 10.0 mg, highest concentration list
  concentration at 8 h: 112 ng/mL
